# According to patent publication US11149040B2, “Fused triazole agonists of the APJ receptor” (AMGEN INC., priority 2017, dated 2021):
# What was measured:
# [1] = system: heart failure rats; test: Cardiac contractility in vivo in heart failure rat model; details: alone, acute settings
# Procedure: Evidence for Improvement in Cardiac Contractility In Vivo in Heart Failure Rat Model Based on ex vivo findings in isolated heart assay, APJ agonists are dosed in vivo to investigate the translation of cardiac contractility in in vivo settings. Male Lewis rats (Charles River, USA) at 2-3 months of age are used for the study. Heart failure is induced by permanent ligation of the left descending coronary artery which results in injury to the heart with an ejection fraction of <35%. APJ agonists are administered dose dependently acutely for a period of 30 min. Administration of APJ agonists lead to an increase in cardiac contractility as measured by dP/dtmax (derivative of left ventricular pressure).
# [2] = target: human APJ receptor (Homo sapiens (Human), UniProt P35414); test: [35S]GTPγS binding assay on membranes from CHO cells stably expressing human APJ receptor; type: biochemical; details: read-out: Activity hAPJ SPA EC50 IP
# How it was run: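 Membranes from CHO cells stably expressing FLAG-tagged human APJ; assay buffer GDP, MgCl2 and NaCl levels optimised beforehand. Incubation 90 min at RT, imager read-out. EC50 from non-linear regression on means of several independent experiments.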
# human APJ receptor, sequence (P35414 whole entry): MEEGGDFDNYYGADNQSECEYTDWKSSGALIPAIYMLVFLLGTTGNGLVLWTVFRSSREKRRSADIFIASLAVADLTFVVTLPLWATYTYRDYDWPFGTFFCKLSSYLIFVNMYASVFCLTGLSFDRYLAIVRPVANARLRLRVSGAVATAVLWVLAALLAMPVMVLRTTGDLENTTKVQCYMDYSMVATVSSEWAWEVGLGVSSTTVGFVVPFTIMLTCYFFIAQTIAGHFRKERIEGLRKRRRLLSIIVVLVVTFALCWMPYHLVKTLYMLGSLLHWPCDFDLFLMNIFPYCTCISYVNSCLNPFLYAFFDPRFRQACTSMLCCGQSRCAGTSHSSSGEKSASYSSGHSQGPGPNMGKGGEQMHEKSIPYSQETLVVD
SMILES,improvement in contractility or ejection fraction [1],EC50 [2] [µM]
"C[C@H](CS)C(=O)N1CCC[C@H]1C(=O)O [Captopril, captopril]",does not show a marked improvement in contractility or ejection fraction acutely,–
"COC[C@@H]1COc2ncccc2-c2nnc(NS(=O)(=O)[C@@H](C)[C@H](OC(C)C)c3ncc(C)cn3)n21 (single isomer, unassigned) [Example 68.0, (1R,2S)-N-((5R)-5-(methoxymethyl)-5,6-dihydropyrido[3,2-f][1,2,4]triazolo[4,3-d][1,4]oxazepin-3-yl)-1-(5-methyl-2-pyrimidinyl)-1-(2-propanyloxy)-2-propanesulfonamide or (1R,2S)-N-((5S)-5-(methoxymethyl)-5,6-dihydropyrido[3,2-f][1,2,4]triazolo[4,3-d][1,4]oxazepin-3-yl)-1-(5-methyl-2-pyrimidinyl)-1-(2-propanyloxy)-2-propanesulfonamide]",–,3.9
"Cc1cnc([C@H](OC(C)C)[C@H](C)S(=O)(=O)Nc2nnc3n2[C@H](CO)OCc2ccc(C(F)(F)F)cc2-3)nc1 (single isomer, unassigned) [Example 156.0, (1S,2S)-N-((R)-5-(hydroxymethyl)-10-(trifluoromethyl)-5,6-dihydrobenzo[f][1,2,4]triazolo[4,3-d][1,4]oxazepin-3-yl)-1-isopropoxy-1-(5-methylpyrimidin-2-yl)propane-2-sulfonamide or (1S,2S)-N-((S)-5-(hydroxymethyl)-10-(trifluoromethyl)-5,6 dihydrobenzo[f][1,2,4]triazolo[4,3-d][1,4]oxazepin-3-yl)-1-isopropoxy-1-(5-methylpyrimidin-2-yl)propane-2-snlfonamide]",–,2.11
